biological target: T1, human B1R (Homo sapiens, UniProt P46663); experiment: Functional assay at bradykinin receptor 1 (B1R): Ca2+ fluorescence (Fluo-4) in FLIPR/Novostar, antagonist mode; type: cell-based; conditions: test substance 10 µM; CHO K1 cells stably transfected with human B1R gene (hB1R-Zellen); agonist Lys-Des-Arg9-Bradykinin at EC80; % inhibition relative to maximal achievable inhibition; read-out: % Inhibierung (human B1R) bei 10 µM
T1 construct: expressed in transfected cells; host or cells: CHO K1 cells (Chinese Hamster Ovary), stably transfected
T1 sequence (P46663 1-353): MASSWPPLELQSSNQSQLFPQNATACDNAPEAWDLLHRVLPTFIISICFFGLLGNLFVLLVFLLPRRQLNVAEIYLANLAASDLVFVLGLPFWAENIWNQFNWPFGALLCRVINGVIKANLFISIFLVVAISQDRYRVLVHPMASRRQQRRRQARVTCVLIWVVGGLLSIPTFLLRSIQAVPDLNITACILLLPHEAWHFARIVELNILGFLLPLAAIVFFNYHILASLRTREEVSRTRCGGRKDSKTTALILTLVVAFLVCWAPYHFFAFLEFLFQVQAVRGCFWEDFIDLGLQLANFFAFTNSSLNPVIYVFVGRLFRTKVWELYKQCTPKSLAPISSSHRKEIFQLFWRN
Method in brief: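 Antagonism read as suppression of the Ca2+ rise in Fluo-4-loaded, hB1R-transfected CHO K1 cells when Lys-Des-Arg9-bradykinin (EC80) follows a 6–20 min compound preincubation. Maximal fluorescence counts, measured on FLIPR or Novostar, yield % inhibition relative to maximum; IC50 values come from concentration series run in duplicate or triplicate.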

Inhibition at 10 µM, 100%:
COc1cc(C)c(S(=O)(=O)Cc2noc(CC(=O)N(C)C3CCN(c4ccnc(N(C)C)n4)CC3)n2)c(C)c1 [SC-66, N-[1-(2-Dimethylamino-pyrimidin-4-yl)-piperidin-4-yl]-2-[3-[[(4-methoxy-2,6-dimethyl-phenyl)-sulfonyl]-methyl]-[1,2,4]oxadiazol-5-yl]-N-methyl-acetamid]
COc1cc(C)c(S(=O)(=O)Cc2noc(C(=O)N3CCC4(CCN(c5ccncc5)C4)C3)n2)c(C)c1 (stereo not drawn) [SC-05, [3-[[(4-Methoxy-2,6-dimethyl-phenyl)sulfonyl]-methyl]-[1,2,4]oxadiazol-5-yl]-(8-pyridin-4-yl-3,8-diazaspiro[4.4]nonan-3-yl)-methanon]
COc1cc(C)c(S(=O)(=O)Cc2noc(CC(=O)NC3CCC(N4CCCC4)CC3(C)C)n2)c(C)c1 (stereo not drawn) [CC-23, N-(2,2-Dimethyl-4-pyrrolidin-1-yl-cyclohexyl)-2-[3-[[(4-methoxy-2,6-dimethyl-phenyl)sulfonyl]-methyl]-[1,2,4]oxadiazol-5-yl]-acetamid]
